Measured values: patent US5126057A, “Disinfecting with N,N'-dihaloimidazolidin-4-ones” (Auburn Research Foundation, priority 1991, dated 1992)
Like-named read-outs stand apart in the source and are kept apart here.

Legend:
[1] = system: Oscillatoria lutea, Anabaena cylindrica, and Chlorella pyrenoidosa; test: Algastatic effect on heavy algal growth in aquariums; type: cell-based; settings: for regrowth of algae (in words): after total elapsed time of 19 days, all titratable chlorine disappeared; for Percent Total Potential Positive Chlorine Remaining: algal aquarium; for algastatic / algacidal effect (in words): extended periods, water containing heavy algal growth; for decoloration / bleaching of algae (in words): within 2 days for Cpd 1 (9.9 mg per liter Cl+), Cpd 3 at 4.9 mg per liter
Excerpt: Two 10 gallon aquariums each containing 35 liters of Bristol's solution (described by R. C. Starr in the article "The Culture Collection of Algae at the University of Texas", J. Phycology, 14, 47 (1978)) at pH 6.8 were inoculated with a mixture of three species of algae; Oscillatoria lutea, Anabaena cylindrica, and Chlorella pyrenoidosa. The 2 aquariums were continually aerated and each illuminated by a 20 watt Gro-lux lamp placed 15 centimeters from the side of the aquarium. The experiment was conducted at ambient temperature which ranged between 21° and 24° C.
After a 34 day growth period the heavy algal cell density was measured by direct counts using a hemacytometer. The cell density in aquarium A at this time was 2.2×10^7 cells per milliliter, while that in aquarium B was 6.6×10^6 cells per milliliter. The absorbances of the two solutions at 750 nanometers were also measured at that time and found to be 0.273 for aquarium A and 0.112 for aquarium B. The absorbance at 750 nanometers has been employed as an index of algal chlorophyll concentration ("Standard methods for the Examination of Water and Wastewater", 16th edition, American Public Health Association, Washington, D.C., 1985, p. 1070). Then a solution of 1.042 grams of 1,3-dichloro-2,2,5,5-tetramethylimidazolidin-4-one (Compound 1) as prepared in example 3 in 500 milliliters of demand-free water (DFW) was added to aquarium A resulting in an initial potential positive chlorine concentration of 9.9 milligrams per liter in that aquarium. Similarly a solution of 0.872 gram of 1-chloro-2,2,5,5-tetramethylimidazolidin-4-one (Compound 3) as prepared in example 6 in 500 milliliters of DFW was added to aquarium B resulting in an initial potential positive chlorine concentration of 4.9 milligrams per liter in that aquarium. The aquariums were sampled periodically and analyzed for algal growth by means of absorbance measurements at 750 nanometers using a Milton Roy Spectronic 301 spectrophotometer and for total potential positive chlorine concentration using standard iodometric titration. […] Following the loss of all total potential positive chlorine from the aquariums, second additions of 0.87 grams of Compound 3 and of 1.042 grams of Compound 1 were made to aquariums B and A, respectively.

[2] = Stability in demand-free water exposed to direct sunlight; type: physicochemical; settings: pH 7; for remaining at 3 h / remaining at 5 h / remaining at 10 h: demand-free water, direct sunlight
Protocol: The stabilities of compounds 1,5, and free chlorine from calcium hypochlorite (Compound 2) in water exposed to direct sunlight were determined. Each compound at the 10 milligrams per liter total chlorine concentration level (or at the molar equivalent for total halogen for Compound 5) was dissolved in 85 milliliters of demand-free water buffered at pH 7.0 in separate 100 milliliter beakers which were placed in a temperature-controlled water bath (22°-24° C.), and the bath containing the solutions was placed on the roof of the chemistry building at Auburn University exposed to direct sunlight during August 1988. Total potential positive halogen assays were made periodically on aliquots withdrawn over a 10 hour period using the standard iodometric titration technique.

[3] = system: Staphylococcus aureus (ATCC 25923); test: Disinfection of hard surfaces (modified AOAC Use-Dilution Method, stainless steel cylinders); type: cell-based; settings: for bacterial growth after contact (in words): 25, 50, 100, 200 ppm positive chlorine (molar equivalents for Cpd 5), pH 7.0, 10 minutes contact; for minimal effective concentration: Staphylococcus aureus, ATCC25923, 10 min, 10 minutes contact, pH 7.0, read-out: effective hard surface disinfectant concentration
Protocol: The efficacies of compounds 1 and 5 as hard surface disinfectants were assessed by using a modification of the AOAC Use-Dilution Method as described in "Official Methods of Analysis of the Association of Official Analytical Chemists", ed. W. Horwitz, A.O.A.C., Washington, D.C., 1989, pp. 58-59. Small stainless steel cylinders (Penicylinders from Fisher Scientific) were cleaned with 1 Normal sodium hydroxide solution, sterilized in 0.1 percent asparagine in an autoclave, and cooled to ambient temperature. The cylinders were then inoculated with Staphylococcus aureus (ATCC 25923) by placing them in a 24 hour old nutrient broth culture of the organism for 15 minutes. The cylinders were aseptically removed from the broth, placed in a sterile petri dish upon filter paper for draining, and dried at 37° C. in an incubator for 60 minutes.
The halogenated imidazolidin-4-ones were dissolved in demand-free water buffered at pH 7.0 at concentrations of 25, 50, 100, and 200 parts per million of potential ionizable positive chlorine for Compound 1 (or molar equivalents of total potential ionizable positive halogen for Compound 5), and 2 milliliter aliquots of the solutions were added to each of a series of sterile culture tubes. Control solutions of pH 7.0 demand-free water were also added to a series of tubes. At least 10 tubes at each concentration of disinfectant were employed. Then an inoculated metal cylinder was added to each tube containing disinfectant and each control tube at exactly 30 second intervals. After exactly 10 minutes contact time the cylinders were removed from the tubes at 30 second intervals in the same order as was used for their addition, i.e. the contact time was 10 minutes for all cylinders. Each metal cylinder was placed into a culture tube containing 3 milliliters of nutrient broth and 0.01 normal sodium thiosulfate to quench disinfectant action. All tubes were examined for bacterial growth (inspected for the presence or absence of turbidity) following 48 hours of incubation at 37° C.

[4] = system: Oscillatoria lutea, Anabaena cylindrica, and Chlorella pyrenoidosa; test: Prevention of the growth of algae in water by Compound 1; type: cell-based
Protocol: Two 10 gallon aquariums were each filled with 35 liters of Bristol's solution at pH 6.8 as described in example 16. To aquarium A was added 6.14 milligrams per liter total potential positive chlorine from 0.638 grams of 1,3-dichloro-2,2,5,5-tetramethylimidazolidin-4-one (Compound 1) as prepared in example 1. Aquarium B was used as a control with no halogenated compound added. Then 5 milliliters of an inoculum containing the algae Oscillatoria lutea, Anabaena cylindrica, and Chlorella pyrenoidosa with an absorbance of 0.14 at 750 nanometers was added to each aquarium. Constant aeration and illumination as described in example 16 were provided throughout the experiment. The laboratory temperature varied between 21° and 24° C. during the course of the experiment. Both aquariums were sampled periodically such that the absorption at 750 nanometers could be measured with a Milton Roy Spectronic 301 spectrophotometer. Aquarium A was also sampled for total potential positive chlorine using standard iodometric titration.

[5] = day 0, initial 9.9 (Cpd 1) or 4.9 (Cpd 3) mg per liter
[6] = day 6 (then additional 0.87 grams of Cpd 3 added), 8640 min
[7] = day 10 (then additional 1.042 grams of Cpd 1 added), 14400 min
[8] = day 0 (before addition), initial Cl+ 9.9 (Cpd 1) or 4.9 (Cpd 3) mg per liter
[9] = day 1, initial Cl+ 9.9 (Cpd 1) or 4.9 (Cpd 3) mg per liter
[10] = day 3, initial Cl+ 9.9 (Cpd 1) or 4.9 (Cpd 3) mg per liter
[11] = day 8, second addition of Cpd 3 at day 6
[12] = day 10, second addition of Cpd 3 at day 6, of Cpd 1 at day 10
[13] = day 19, after second additions, no titratable chlorine left

Row | SMILES | regrowth of algae (in words) [1] | Percent Total Potential Positive Chlorine Remaining [1, 5] [%] | Percent Total Potential Positive Chlorine Remaining ([1]; day 1) [%] | Percent Total Potential Positive Chlorine Remaining ([1]; day 3) [%] | Percent Total Potential Positive Chlorine Remaining [1, 6] [%] | Percent Total Potential Positive Chlorine Remaining ([1]; day 7) [%] | Percent Total Potential Positive Chlorine Remaining ([1]; day 8) [%] | Percent Total Potential Positive Chlorine Remaining [1, 7] [%] | Percent Total Potential Positive Chlorine Remaining ([1]; day 16) [%] | A750 (Absorbance at 750 Nanometers) [1, 8] | A750 (Absorbance at 750 Nanometers) [1, 9] | A750 (Absorbance at 750 Nanometers) [1, 10] | A750 (Absorbance at 750 Nanometers) [1, 11] | A750 (Absorbance at 750 Nanometers) [1, 12] | A750 (Absorbance at 750 Nanometers) ([1]; day 16, after second additions) | A750 (Absorbance at 750 Nanometers) [1, 13] | algastatic / algacidal effect (in words) [1] | decoloration / bleaching of algae (in words) [1] | remaining at 3 h [2] [%] | remaining at 5 h [2] [%] | further results
1 | CC1(C)NC(=O)C(C)(C)N1Cl [Compound 3, 1-chloro-2,2,5,5-tetramethylimidazolidin-4-one] | the algae began to grow again | 100.0 | 71.8 | 31.0 | 0.0 | 77.3 | 47.6 | 17.3 | 0.0 | 0.112 | 0.063 | 0.066 | 0.021 | 0.012 | 0.007 | 0.010 | algastatic, but not algacidal | a longer time period for decoloration |  |  | 
2 | CC1(C)C(=O)N(Cl)C(C)(C)N1Br [Compound 5, 1-bromo-3-chloro-2,2,5,5-tetramethylimidazolidin-4-one] |  |  |  |  |  |  |  |  |  |  |  |  |  |  |  |  |  |  | 60.5 | 45.7 | remaining at 10 h [2]: 14.9%; stability (in words) [2]: less stable than Compound 1, but significantly more stable than free chlorine; bacterial growth after contact (in words) [3]: none of the tubes containing compounds 1 or 5 at any of the concentration levels exhibited bacterial growth; minimal effective concentration ([3]; total potential positive halogen): ≤ 40.7 µg/mL
3 | CC1(C)C(=O)N(Cl)C(C)(C)N1Cl [Compound 1, 1,3-dichloro-2,2,5,5-tetramethylimidazolidin-4-one] | the algae began to grow again | 100.0 | 82.9 | 44.4 | 13.8 | 7.0 | 3.4 | 0.0 | 34.7 | 0.273 | 0.064 | 0.081 | 0.058 | 0.038 | 0.020 | 0.055 | algastatic, but not algacidal | only white turbidity resulting from the bleaching of the algae | 84.9 | 74.8 | remaining at 10 h [2]: 51.2%; stability (in words) [2]: much more stable than free chlorine; time to noticeable loss of green coloration ([1]; Cpd 1 at 9.9 mg per liter Cl+): ≤ 4 h; green turbid tint (in words) ([4]; 6.14 mg per liter Cl+, 18 day experiment): did not develop such a color at any time during the 18 day experiment; A750 (Absorbance at 750 Nanometers) ([4]; 6.14 mg per liter Cl+, day 7): 0.002; A750 (Absorbance at 750 Nanometers) ([4]; 6.14 mg per liter Cl+, day 11): 0.0; A750 (Absorbance at 750 Nanometers) ([4]; 6.14 mg per liter Cl+, day 12): 0.001; A750 (Absorbance at 750 Nanometers) ([4]; 6.14 mg per liter Cl+, day 13): 0.0; A750 (Absorbance at 750 Nanometers) ([4]; 6.14 mg per liter Cl+, day 14): 0.001; A750 (Absorbance at 750 Nanometers) ([4]; 6.14 mg per liter Cl+, day 15): 0.0; A750 (Absorbance at 750 Nanometers) ([4]; 6.14 mg per liter Cl+, day 18): 0.0; prevention of the growth of algae (in words) ([4]; as long as a measurable amount of the compound is present): effective at preventing the growth of algae in water; Percent Total Potential Positive Chlorine Remaining ([4]; start 6.14 mg per liter, day 0): 100.0%; bacterial growth after contact (in words) [3]: none of the tubes containing compounds 1 or 5 at any of the concentration levels exhibited bacterial growth; minimal effective concentration ([3]; potential ionizable positive chlorine): ≤ 25 µg/mL
